Test systems include HCC-2998 colon; HT29 colon; KM12 colon; M14 melanoma; NCI-H226 lung; NCI-H23 lung; OVCAR-5 ovarian; RPMI-8226 leukemia; TK-10 renal; U251 CNS.
Holding throughout (assay): NCI anticancer screen, dose series, 48 h

Where “and” joins values, the source holds several entries; their conditions need not be identical. Equal entries are not always repeated.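 Briefly, cells in 96-well plates were exposed to five compound concentrations for 48 h, and endpoints were estimated by linear interpolation. The concentration for 50% growth inhibition is given as GI50. TGI is the concentration that stops growth completely.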

Consider eleven compounds from PubChem BioAssay (NCI).

Take `CCOc1ccc(N=Cc2cccc3cccnc23)cc1`: the TGI in the assay with HCC-2998 colon, in the assay on HT29 colon, in the assay on KM12 colon, in the assay on M14 melanoma, with NCI-H226 lung and in the assay on NCI-H23 lung was above 100 µM in each case. Further, the TGI in the assay with OVCAR-5 ovarian, in the assay with RPMI-8226 leukemia, with TK-10 renal and in the assay on U251 CNS was above 100 µM throughout.

For the compound `CC(CN(CP(=O)([O-])[O-])CP(=O)([O-])[O-])N(CP(=O)([O-])[O-])CP(=O)([O-])[O-].N.N.[Pt+2]` (configuration not stated), the GI50 in the assay on HCC-2998 colon, in the assay on HT29 colon, in the assay with KM12 colon, with M14 melanoma, in the assay on NCI-H226 lung and in the assay on NCI-H23 lung was above 100 µM each time. Also, the GI50 in the assay with OVCAR-5 ovarian, in the assay on RPMI-8226 leukemia, in the assay with TK-10 renal and in the assay on U251 CNS was above 100 µM in each case. Also, the TGI in the assay with HCC-2998 colon, in the assay with HT29 colon, with KM12 colon, with M14 melanoma, in the assay on NCI-H226 lung and in the assay on NCI-H23 lung was above 100 µM in each case. The TGI in the assay on OVCAR-5 ovarian, in the assay with RPMI-8226 leukemia, with TK-10 renal and in the assay with U251 CNS was above 100 µM in each case.

In the case of `CC1OC(n2ncc(=O)[nH]c2=O)C=CC1=O` (configuration not stated), the TGI was above 100 µM with HCC-2998 colon; above 100 µM in the assay on HT29 colon; above 100 µM in the assay with KM12 colon; > 100 µM and 60.5 µM in the assay with M14 melanoma; above 100 µM in the assay with NCI-H226 lung; > 100 µM and 37.3 µM in the assay on NCI-H23 lung. For the same compound, the TGI with OVCAR-5 ovarian was above 100 µM; in the assay with RPMI-8226 leukemia, 99.3 µM and 62 µM; in the assay on TK-10 renal, above 100 µM; in the assay on U251 CNS it was above 100 µM. For the same compound, the GI50 in the assay with M14 melanoma was 89.4 µM and 20.5 µM; with NCI-H23 lung, 34.7 µM and 16.5 µM.

As to `CC1=C([Se]CC(OC(=O)CC[Se]c2ccccc2)C(=O)NCCCCCC(=O)OCc2ccccc2)C(=O)c2ccccc2C1=O` (configuration not stated), the GI50 is 2.9 µM with HCC-2998 colon; 3.65 µM in the assay with HT29 colon; 2.27 µM in the assay with KM12 colon; 2.04 µM with M14 melanoma; 2.75 µM in the assay with NCI-H226 lung; 2 µM in the assay with NCI-H23 lung. Besides, the GI50 in the assay on OVCAR-5 ovarian was 5.39 µM; in the assay on RPMI-8226 leukemia, 3.18 µM; with TK-10 renal, 4.47 µM; with U251 CNS it was 1.89 µM. Also, the TGI with HCC-2998 colon was 7.46 µM; with HT29 colon, 12.1 µM; in the assay with KM12 colon, 5.45 µM; with M14 melanoma, 4.8 µM; in the assay on NCI-H226 lung, 7.07 µM; in the assay with NCI-H23 lung, 5.53 µM. Also, the TGI in the assay with OVCAR-5 ovarian was found to be 20.1 µM; in the assay with RPMI-8226 leukemia it was 12.9 µM; with TK-10 renal it was 12.4 µM; with U251 CNS it was 4.07 µM.

`COc1cc2oc(=O)ccc2cc1C1OC(=O)C2OC21C` (configuration not stated): the TGI with HCC-2998 colon, in the assay on HT29 colon, with KM12 colon, in the assay on M14 melanoma, with NCI-H226 lung and with NCI-H23 lung was above 100 µM throughout. In addition, the TGI in the assay with OVCAR-5 ovarian, in the assay with RPMI-8226 leukemia, in the assay on TK-10 renal and with U251 CNS was above 100 µM throughout.

`[N-]=[N+]=NC(c1cn(C2CC(O)C(CO)O2)c(=O)[nH]c1=O)C(Br)I` (configuration not stated): the TGI with HCC-2998 colon, with HT29 colon, in the assay on KM12 colon, in the assay on M14 melanoma, in the assay with NCI-H226 lung and in the assay on NCI-H23 lung was above 100 µM in each case. Besides, the TGI with OVCAR-5 ovarian, in the assay on RPMI-8226 leukemia, in the assay with TK-10 renal and in the assay on U251 CNS was above 100 µM throughout.

Turning to `O=C(/C=C/c1ccc(OCC(=O)N2CCN(c3ccccc3)CC2)cc1)c1ccc(Cl)cc1`, the TGI was above 100 µM in the assay with HCC-2998 colon; above 100 µM in the assay with HT29 colon; above 100 µM with KM12 colon; above 100 µM in the assay on M14 melanoma; 97.9 µM in the assay with NCI-H226 lung; above 100 µM in the assay with NCI-H23 lung. Further, the TGI in the assay on OVCAR-5 ovarian was above 100 µM; with RPMI-8226 leukemia it was above 100 µM; in the assay with TK-10 renal it was above 90.6 µM; in the assay on U251 CNS it was 46 µM.

Consider `O=c1c2ccccc2c2ccccc2c(=O)n1-c1cc2c3ccccc3ccc2c2ccccc12`, for which the TGI in the assay with HCC-2998 colon is 89.1 µM; in the assay on HT29 colon, above 100 µM; in the assay on KM12 colon, above 100 µM; with M14 melanoma, above 100 µM; with NCI-H226 lung, above 100 µM; in the assay on NCI-H23 lung, above 100 µM. The TGI in the assay on OVCAR-5 ovarian, with RPMI-8226 leukemia, in the assay with TK-10 renal and in the assay on U251 CNS was above 100 µM each time.

`N#CC(=S)Nc1cccc(Cl)c1`: the TGI in the assay with HCC-2998 colon was 83.1 µM; in the assay with HT29 colon, above 100 µM; in the assay with KM12 colon, above 100 µM; in the assay on M14 melanoma, above 100 µM; in the assay on NCI-H226 lung, above 100 µM; in the assay with NCI-H23 lung it was above 100 µM. Besides, the TGI was above 100 µM with OVCAR-5 ovarian, 61.4 µM in the assay on RPMI-8226 leukemia, above 100 µM in the assay on TK-10 renal and above 100 µM in the assay on U251 CNS.

Consider `Cc1cccc(C(C)(C)C)c1NC(=O)C(=O)C(C(=O)/C=C\c1ccccc1)C1OC(=O)c2ccccc21` (configuration not stated), for which the TGI with HCC-2998 colon, in the assay with HT29 colon, with KM12 colon, in the assay with M14 melanoma, in the assay with NCI-H226 lung and with NCI-H23 lung was above 100 µM in each case. For the same compound, the TGI in the assay on OVCAR-5 ovarian, in the assay on RPMI-8226 leukemia, with TK-10 renal and with U251 CNS was above 100 µM throughout.

Consider `CC12CCC3C(CC=C4CC(O)CCC43C)C1C/C(=C\N1CCCC1)C2=O` (configuration not stated), for which the GI50 in the assay on HCC-2998 colon was above 100 µM; in the assay on HT29 colon, above 100 µM; in the assay on KM12 colon it was 73.3 µM; in the assay with M14 melanoma, above 100 µM; in the assay on NCI-H226 lung, above 100 µM; in the assay on NCI-H23 lung, above 100 µM. The GI50 is above 100 µM in the assay with OVCAR-5 ovarian, 37 µM in the assay on RPMI-8226 leukemia, above 100 µM in the assay with TK-10 renal and above 100 µM with U251 CNS. Further, the TGI in the assay on HCC-2998 colon, in the assay on HT29 colon, in the assay on KM12 colon, in the assay on M14 melanoma, in the assay on NCI-H226 lung and in the assay with NCI-H23 lung was above 100 µM each time. The TGI in the assay with OVCAR-5 ovarian, in the assay with RPMI-8226 leukemia, in the assay on TK-10 renal and with U251 CNS was above 100 µM in each case.
